From patent US20100303758A1, “Novel Glucocorticoid Receptor Agonists” (priority 2009, published 2010)

Assays:
human GR = molecular target: T1, human GR (Homo sapiens, UniProt P04150); assay: GR agonist potency, MMTV-luciferase reporter in SW1353 cells; format: cell-based; details: human chondrosarcoma cell-line SW1353 stably transfected with MMTV-luciferase reporter; approx. 18 hours; data as percentage of 1 μM dexamethasone positive control
T1 construct: SW1353 naturally expresses human GR; endogenous in cells; host or cells: human chondrosarcoma cell-line SW1353 stably transfected with an MMTV-luciferase reporter construct
T1 sequence (P04150 1-777): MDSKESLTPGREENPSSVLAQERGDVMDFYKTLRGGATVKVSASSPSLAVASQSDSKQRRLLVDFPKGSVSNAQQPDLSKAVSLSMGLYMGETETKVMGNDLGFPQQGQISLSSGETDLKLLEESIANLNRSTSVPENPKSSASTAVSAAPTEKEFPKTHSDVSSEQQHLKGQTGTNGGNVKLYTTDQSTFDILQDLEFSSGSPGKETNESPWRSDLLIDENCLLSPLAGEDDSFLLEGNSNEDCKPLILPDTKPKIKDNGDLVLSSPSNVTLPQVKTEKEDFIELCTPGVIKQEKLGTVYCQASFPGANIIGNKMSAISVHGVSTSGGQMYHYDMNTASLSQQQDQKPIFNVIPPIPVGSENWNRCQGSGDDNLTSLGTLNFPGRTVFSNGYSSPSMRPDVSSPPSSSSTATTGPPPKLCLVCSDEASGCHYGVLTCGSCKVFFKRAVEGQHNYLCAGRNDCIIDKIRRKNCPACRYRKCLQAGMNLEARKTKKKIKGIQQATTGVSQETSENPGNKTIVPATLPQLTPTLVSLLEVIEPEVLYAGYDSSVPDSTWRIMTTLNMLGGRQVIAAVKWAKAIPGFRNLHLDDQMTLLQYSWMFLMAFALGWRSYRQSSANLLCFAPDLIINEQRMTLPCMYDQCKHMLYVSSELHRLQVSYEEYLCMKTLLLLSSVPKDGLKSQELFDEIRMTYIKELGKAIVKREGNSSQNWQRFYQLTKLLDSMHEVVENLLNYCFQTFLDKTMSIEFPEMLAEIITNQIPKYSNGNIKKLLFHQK
Method: Glucococorticoid receptor (GR) agonist potency was determined in the human chondrosarcoma cell-line SW1353 stably transfected with an MMTV-luciferase reporter construct. SW1353 naturally expresses human GR, which on binding a glucocorticoid agonist activates glucocorticoid response elements within the MMTV promoter, driving expression of the luciferase gene.
Frozen SW1353 cells were revived in DMEM medium, without sodium pyruvate or phenol red, supplemented with 2 mM L-glutamine, 1 μg/ml insulin, 2 mg/ml lactalbumin hydrosylate and 0.5 μg/ml ascorbate. Cells were seeded at approximately 5000 cells/well (35 μl/well) in 384-well clear bottom, tissue culture treated plates. Steroid dose-response dilutions were prepared in steroid diluent (PBS containing 2.5% (v/v) DMSO and 0.05% (v/v) pluronic detergent) and 5 μl added to each well. The volume was made up to 50 μl per well with steroid diluent. Positive control wells contained 1 μM dexamethasone. Plates were incubated for approximately 18 hours at 37° C. in an air/5% CO2 atmosphere in a humidified incubator before Britelite reagent (10 μl; Perkin-Elmer) was added to each well. Each plate was incubated for 2 minutes in the dark and luminescence quantified using a LJL Biosystems Analyst luminometer. Data for test compounds (expressed as percentage of the dexamethasone positive control) were used to construct dose response curves from which EC50 values were estimated.

[1] = Inhibition of TNF-α release from LPS stimulated isolated human PBMC; format: cell-based; details: Homo sapiens, PBMC, read-out: IC50 (nM) for inhibition of TNF-α release
Method: The anti-inflammatory activity of the compounds against human leukocytes in vitro was also evaluated by determining inhibition of tumour necrosis factor-α (TNF-α) release from lipopolysaccharide (LPS) stimulated isolated human peripheral mononuclear cells (PBMC).
Peripheral venous blood from healthy, non-medicated donors was collected using ethylenediaminetetraacetic acid (EDTA) as the anti-coagulant. For PBMC preparation, samples of blood were diluted 1:1 with sterile phosphate buffered saline and then separated using ACCUSPIN™ System-Histopaque®-1077 tubes (Sigma-Aldrich, St Louis, Mo.), centrifuged at 400 g for 35 minutes. Buffy coat cells were removed into PBS, centrifuged at 200 g for 10 minutes and re-suspended in PBMC assay buffer (Hanks Balanced Salt Solution, 0.28% [w/v] 4-[2-hydroxyethyl]-1-piperazineethanesulfonic acid [HEPES], 0.01% [w/v] low-endotoxin bovine serum albumin [BSA]. A differential white cell count was performed and PBMC's diluted to 1×10^6 lymphocytes per ml in PBMC assay buffer.
Test compounds were dissolved in DMSO and diluted in PBMC assay buffer (final DMSO concentration 1%) to cover an appropriate concentration range, e.g 0.001 nM to 10000 nM. Samples of test compound solution or vehicle (20 μl) were added into 96-well tissue culture treated plates (Corning) and PBMC (160 μl) added to each well. The assay mixtures were incubated at 37° C. for 1 h in a humidified incubator containing an atmosphere of air supplemented with 5% CO2 before adding LPS (20 μl of 100 ng/ml for PBMC). Plates were returned to the incubator for a further 18 hours, and then centrifuged before recovery of samples of supernatant. TNF-α in the samples was determined using an enzyme-linked immunosorbent assay (ELISA) (Invitrogen kit no CHC-1754; Invitrogen Carlsbad, Calif.) and following the manufacturers instructions. Dose response curves were constructed from which IC50 values were calculated.

Compound	EC50 (human GR) [nM]	IC50 [1] [nM]
C[C@]12C=CC(=O)C=C1CC[C@H]1[C@@H]3CC[C@](OC(=O)c4ccc(Oc5ccccc5)c(O)c4)(C(=O)OCC#N)[C@@]3(C)C[C@H](O)[C@@]12F [Example 33, cyanomethyl(11beta,17alpha)-9-fluoro-11-hydroxy-17-[(3-hydroxy-4-phenoxybenzoyl)oxy]-3-oxoandrosta-1,4-diene-17-carboxylate]	68.3	0.212
C[C@]12C=CC(=O)C=C1CC[C@H]1[C@@H]3CC[C@](OC(=O)c4ccc(Sc5ccccc5O)cc4)(C(=O)OCC#N)[C@@]3(C)C[C@H](O)[C@@]12F [Example 35, cyanomethyl (11beta,17alpha)-9-fluoro-11-hydroxy-17-({4-[(2-hydroxyphenyl)thio]benzoyl}oxy)-3-oxoandrosta-1,4-diene-17-carboxylate]	75.2	0.099
C[C@]12C=CC(=O)C=C1CC[C@H]1[C@@H]3CC[C@](OC(=O)c4ccc(Oc5ccc(O)nc5)cc4)(C(=O)OCC#N)[C@@]3(C)C[C@H](O)[C@@]12F [Example 36, cyanomethyl (11beta,17alpha)-9-fluoro-11-hydroxy-17-({4-[(6-hydroxypyridin-3-yl)oxy]benzoyl}-oxy)-3-oxoandrosta-1,4-diene-17-carboxylate]	16.3	0.167
C[C@]12C=CC(=O)C=C1CC[C@H]1[C@@H]3CC[C@](OC(=O)c4ccc(Oc5ccc(O)c(Cl)c5)cc4)(C(=O)OCC#N)[C@@]3(C)C[C@H](O)[C@@]12F [Example 37, cyanomethyl (11beta,17alpha)-17-{[4-(3-chloro-4-hydroxybhenoxy)-benzoyl]oxy}-9-fluoro-11-hydroxy-3-oxoandrosta-1,4-diene-17-carboxylate]	39.7	0.201
C[C@]12C=CC(=O)C=C1CC[C@H]1[C@@H]3CC[C@](OC(=O)c4ccc(Sc5ccc(Cl)c(O)c5)cc4)(C(=O)SCC#N)[C@@]3(C)C[C@H](O)[C@@]12F [Example 38, (11beta,17alpha)-17-{[(cyanomethyl)thio]carbonyl}-9-fluoro-11-hydroxy-3-oxoandrosta-1,4-dien-17-yl 4-[(4-chloro-3-hydroxyphenyl)thio]benzoate]	54.7	0.755
C[C@]12C=CC(=O)C=C1CC[C@H]1[C@@H]3CC[C@](OC(=O)c4ccc(Sc5ccc(Cl)c(O)c5)cc4)(C(=O)OCC#N)[C@@]3(C)C[C@H](O)[C@@]12F [Example 39, cyanomethyl(11beta,17alpha)-17-({4-[(4-chloro-3-hydroxyphenyl)thio]benzoyl}oxy)-9-fluoro-11-hydroxy-3-oxoandrosta-1,4-diene-17-carboxylate]	44.1	0.615
C[C@]12C=CC(=O)C=C1CC[C@H]1[C@@H]3CC[C@](OC(=O)c4ccc(Oc5ccc(Cl)c(O)c5)cc4)(C(=O)SCF)[C@@]3(C)C[C@H](O)[C@@]12F [Example 40, (11beta,17alpha)-9-fluoro-17-{[(fluoromethyl)thio]carbonyl}-11-hydroxy-3-oxoandrosta-1,4-dien-17-yl 4-(4-chloro-3-hydroxyphenoxy)benzoate]	31.2	0.053
C[C@@H]1C[C@H]2[C@@H]3C[C@H](F)C4=CC(=O)C=C[C@]4(C)[C@@]3(F)[C@@H](O)C[C@]2(C)[C@@]1(OC(=O)c1ccc(Oc2ccc(Cl)c(O)c2)cc1)C(=O)OCF [Example 41, Fluoromethyl (6alpha,11beta,16alpha,17alpha)-17-{[4-(4-chloro-3-hydroxyphenoxy)benzoyl]oxy}-6,9-difluoro-11-hydroxy-16-methyl-3-oxoandrosta-1,4-diene-17-carboxylate]	7.73	0.032
C[C@@H]1C[C@H]2[C@@H]3C[C@H](F)C4=CC(=O)C=C[C@]4(C)[C@@]3(F)[C@@H](O)C[C@]2(C)[C@@]1(OC(=O)c1ccc(Oc2ccc(Cl)c(O)c2)cc1)C(=O)OCC#N [Example 42, Cyanomethyl (6alpha,11beta,16alpha,17alpha)-17-{[4-(4-chloro-3-hydroxyphenoxy)benzoyl]oxy}-6,9-difluoro-11-hydroxy-16-methyl-3-oxoandrosta-1,4-diene-17-carboxylate]	24.4	0.443
C[C@@H]1C[C@H]2[C@@H]3CCC4=CC(=O)C=C[C@]4(C)[C@@]3(F)[C@@H](O)C[C@]2(C)[C@@]1(OC(=O)c1ccc(Oc2ccc(O)c(Cl)c2)cc1)C(=O)SCF [Example 43, (11beta,16alpha,17alpha)-9-fluoro-17-{[(fluoromethyl)thio]carbonyl}-11-hydroxy-16-methyl-3-oxoandrosta-1,4-dien-17-yl 4-(3-chloro-4-hydroxyphenoxy)benzoate]	26.4	0.06
C[C@@H]1C[C@H]2[C@@H]3C[C@H](F)C4=CC(=O)C=C[C@]4(C)[C@@]3(F)[C@@H](O)C[C@]2(C)[C@@]1(OC(=O)c1ccc(Oc2ccc(O)c(Cl)c2)cc1)C(=O)OCF [Example 44, Fluoromethyl (6alpha,11beta,16alpha,17alpha)-17-{[4-(3-chloro-4-hydroxyphenoxy)benzoyl]oxy}-6,9-difluoro-11-hydroxy-16-methyl-3-oxoandrosta-1,4-diene-17-carboxylate]	6.7	0.029
C[C@@H]1C[C@H]2[C@@H]3C[C@H](F)C4=CC(=O)C=C[C@]4(C)[C@@]3(F)[C@@H](O)C[C@]2(C)[C@@]1(OC(=O)c1ccc(Oc2ccc(O)c(Cl)c2)cc1)C(=O)OCC#N [Example 45, cyanomethyl(6alpha,11beta,16alpha,17alpha)-17-{[4-(3-chloro-4-hydroxyphenoxy)benzoyl]oxy}-6,9-difluoro-11-hydroxy-16-methyl-3-oxoandrosta-1,4-diene-17-carboxylate]	21.3	0.155
CSc1ccc(Sc2ccc(C(=O)O[C@]3(C(=O)OCC#N)[C@H](C)C[C@H]4[C@@H]5C[C@H](F)C6=CC(=O)C=C[C@]6(C)[C@@]5(F)[C@@H](O)C[C@@]43C)cc2)cc1 [Example 46, Cyanomethyl (6alpha,11beta,16alpha,17alpha)-6,9-difluoro-11-hydroxy-16-methyl-17-[(4-{[4-(methylthio)phenyl]thio}benzoyl)oxy]-3-oxoandrosta-1,4-diene-17-carboxylate]	44.3	0.372
CSc1cccc(Oc2ccc(C(=O)O[C@]3(C(=O)OCC#N)[C@H](C)C[C@H]4[C@@H]5C[C@H](F)C6=CC(=O)C=C[C@]6(C)[C@@]5(F)[C@@H](O)C[C@@]43C)cc2)c1 [Example 47, Cyanomethyl (6alpha,11beta,16alpha, 17alpha)-6,9-difluoro-11-hydroxy-16-methyl-17-({4-[3-(methylthio)phenoxy]benzoyl}oxy)-3-oxoandrosta-1,4-diene-17-carboxylate]	25.2	0.731
